By EC50 is commonly meant the concentration at which the effect is half-maximal. Read a high EC50 as weaker potency.

T1 sequence (Q06219 whole entry): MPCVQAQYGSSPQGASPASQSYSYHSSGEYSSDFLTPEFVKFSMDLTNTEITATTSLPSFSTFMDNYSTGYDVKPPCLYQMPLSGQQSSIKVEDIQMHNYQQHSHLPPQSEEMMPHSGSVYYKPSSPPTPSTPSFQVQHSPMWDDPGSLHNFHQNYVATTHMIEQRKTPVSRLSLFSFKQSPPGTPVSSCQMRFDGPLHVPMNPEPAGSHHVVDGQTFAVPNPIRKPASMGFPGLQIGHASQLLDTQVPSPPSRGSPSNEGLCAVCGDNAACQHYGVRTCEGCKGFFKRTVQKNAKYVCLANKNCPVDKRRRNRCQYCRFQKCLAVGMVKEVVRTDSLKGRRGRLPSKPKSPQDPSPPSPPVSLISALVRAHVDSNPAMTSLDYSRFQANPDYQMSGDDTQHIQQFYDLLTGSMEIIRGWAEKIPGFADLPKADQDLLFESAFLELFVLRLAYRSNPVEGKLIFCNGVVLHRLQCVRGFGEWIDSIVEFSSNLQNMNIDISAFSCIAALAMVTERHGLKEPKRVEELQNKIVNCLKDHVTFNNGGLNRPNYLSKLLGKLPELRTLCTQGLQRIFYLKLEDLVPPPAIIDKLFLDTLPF

The assay has as its target T1, mouse Nurr1 receptor (Mus musculus, UniProt Q06219).
T1 construct: a cell line (N2A) endogenously expressing the mouse Nurr1 receptor; host or cells: Neuro-2A (N2A) mouse neuroblastoma cells stably transfected with 8NBRE-luciferase
Briefly: In vitro activity on N2A cells: NBRE-luciferase reporter (NOT/Nurr1 modulation). In kind it is cell-based. Conditions: N2A (Neuro-2A) cells stably transfected with 8NBRE-luciferase, 24 hours incubation. The procedure: Evaluation of the In Vitro Activity on N2A Cells The activity of the compounds according to the invention was evaluated on a cell line (N2A) endogenously expressing the mouse Nurr1 receptor and stably transfected with the NOT binding response element (NBRE) coupled to the luciferase reporter gene. The EC50 values are between 0.01 and 10 μM. The tests were carried out according to the procedure described below. The Neuro-2A cell line comes from a standard commercial source (ATCC). The Neuro-2A clone was obtained from a spontaneous tumour originating from a mouse A albino strain, by R. J Klebe et el. This Neuro-2A line is then stably transfected with 8NBRE-luciferase. The N2A-8NBRE cells are cultured to confluence in 75 cm^2 culture flasks containing DMEM supplemented with 10% of foetal calf serum, 4.5 g/l of glucose and 0.4 mg/ml of geneticin. After one week of culture, the cells are recovered with 0.25% trypsin for 30 seconds, and then resuspended in DMEM without phenol red, containing 4.5 g/l of glucose and 10% of Hyclone defatted serum, and deposited in white, transparent-bottom 96-well plates. The cells are deposited at a rate of 60 000 per well in 75 μl for 24 hours before the addition of the products. […] On the day of the measurement, an equivalent volume (100 μl) of Steadylite is added to each well, followed by a waiting period of 30 minutes in order to obtain complete lysis of the cells and maximum production of the signal. The plates are then measured in a microplate luminescence counter after having been sealed with an adhesive film. […] Each product concentration is diluted beforehand in culture medium before incubation with the cells thus containing a final concentration of 0.625% of DMSO.
A general note: In a reporter assay the amount or activity of a reporter protein is the signal.
In turn, `OCc1c(F)cccc1-c1ccc2nc(-c3cccs3)cn2c1` [Compound 68, [2-fluoro-6-(2-thien-2-ylimidazo[1,2-a]pyridin-6-yl)phenyl]methanol] returned an EC50 of 20 nM. This counts as double-digit nanomolar.

`OCc1cccc(-c2ccc3nc(-c4ccc5c(c4)OCO5)cn3c2)c1` [Compound 6, {3-[2-(1,3-benzodioxol-5-yl)imidazo[1,2-a]pyridin-6-yl]phenyl}methanol] showed a half-maximal effective concentration (EC50) of 0.9 nM.

For `OCc1cccc(-c2ccc3nc(-c4cccnc4)cn3c2)c1` [Compound 7], the concentration giving a half-maximal response (EC50) came out at 1.6 nM.

`OCc1c(F)ccc(-c2ccc3nc(-c4cc5ccccc5o4)cn3c2)c1F` [Compound 79, [3-(2-benzofuran-2-ylimidazo[1,2-a]pyridin-6-yl)-2,6-difluorophenyl]methanol] showed a concentration giving a half-maximal response (EC50) of 5 nM.

The compound `CC(C)(O)c1cccc(-c2ccc3nc(-c4ccccn4)cn3c2)c1` [Compound 50, 2-[3-(2-pyridin-2-ylimidazo[1,2-a]pyridin-6-yl)phenyl]propan-2-ol] had an EC50 of 202 nM.

Take `Cc1cc(-c2cn3cc(-c4cccc(C(C)(C)O)c4)ccc3n2)no1` [Compound 86, 2-{3-[2-(5-methylisoxazol-3-yl)imidazo[1,2-a]pyridin-6-yl]phenyl}propan-2-ol]: the EC50 is 71 nM.

`OCc1ccc(-c2ccc3nc(-c4coc5ccccc45)cn3c2)cc1` [Compound 24, [4-[2-(benzofuran-3-yl)imidazo[1,2-a]pyridin-6-yl]phenyl]methanol] came in with an EC50 of 50 nM.

The values are drawn from US8338451B2, “Polysubstituted derivatives of 2-heteroaryl-6-phenylimidazo[1,2-a]pyridines, and preparation and therapeutic use thereof” (Sanofi, priority 2008, dated 2012).
